Source: the pKa sets of Baltruschat and Czodrowski (2020)

Row | Compound | pKa (basic group) | pKa (acidic group)
1 | CCCC(N)C(=O)[O-] (configuration not stated) | 9.86 | –
2 | O=Cc1ccc(-c2cnc(-c3ccccc3)o2)cc1 | 0.57 | –
3 | C#CCCCCCN | 10.6 | –
4 | CSc1ncnc2nc[nH]c12 | – | 8.74
5 | CC(C)NNC1CC[NH+](C)CC1 | 6.32 | –
6 | O=C(O)c1cc2cc(Cn3cc[nH+]c3)ccc2o1 | – | 2.38
7 | C[N+]1(CCCCCC(=O)O)CCCCC1 | – | 4.44
8 | Oc1ccccc1-c1ccccc1O | – | 7.5
9 | [S-]c1ccnc([S-])[nH+]1 | 6.46 | –
10 | NC(Cc1n[nH]c2ccccc12)C(=O)[O-] (configuration not stated) | 8.95 | –
11 | C[Si](C)(CC(=O)O)c1ccccc1 | – | 5.27
12 | CN(C)/C=N/c1ccc(Cl)cc1 | 8.46 | –
13 | O=[N+]([O-])c1ccc(-c2cnc(-c3ccccc3)o2)cc1 | 0.35 | –
14 | C[C@@]12CC(=O)N[C@]1(CCC(=O)[O-])C(=O)NC2=O | – | 8.1
15 | CC(=O)CCC(=O)O | – | 4.63
16 | CCC(O)CN(CCO)C(C)(C)C (configuration not stated) | 9.4 | –
17 | [NH3+]c1ccccc1-c1nc2ccccc2s1 | -1.8 | –
18 | O=C(O)c1ccccc1O[C@H]1O[C@@H](CO)[C@H](O)[C@@H](O)[C@@H]1O | – | 3.6
19 | Cc1cc(Br)cc(C)c1N | 3.54 | –
20 | O=C([O-])/C=C\C(=O)NOCc1ccccc1 | – | 10
21 | O=C(c1ccccc1)c1cccc(O)c1 | – | 9
22 | C[NH+](C)Cc1cccc(O)c1 | – | 8.88
23 | CC1(C)CC(NCCO)CC(C)(C)N1 | 10.5 | –
24 | O=C(O)c1c(Cl)cccc1[N+](=O)[O-] | – | 1.41
25 | CCC(C)N(C)C (configuration not stated) | 10.4 | –

Row | Compound | pKa (basic group) | pKa (acidic group)
26 | C/C(=N\O)NO | 4.95 | 10.8
27 | CC(C)SC(C)C(=O)O (configuration not stated) | – | 3.78
28 | O=[N+]([O-])c1ccc2c(c1)C([P+](c1ccccc1)(c1ccccc1)c1ccccc1)c1ccccc1-2.[Br-] (configuration not stated) | – | 5.36
29 | O=C(NO)c1ccc([N+](=O)[O-])cc1 | – | 8.02
30 | Cc1ccc2c(c1)N1CC[NH+]2CC1 | 2.4 | –
31 | COc1cc2c(cc1OC)C(=O)Cc1ccc3c(c1CN(C)CC2)OCO3 | 8.09 | –
32 | O=C(O)c1cccc([N+](=O)[O-])c1 | – | 3.47
33 | Nc1ccccc1Cl | 2.64 | –
34 | Nc1cnc2c(N)nc(N)nc2n1 | 6.3 | –
35 | N#Cc1cccc(NS(=O)(=O)c2ccccc2)c1 | – | 7.15
36 | O=C(O)c1nsc2ccccc12 | – | 2.76
37 | NC(=O)C1CN2CCC1CC2 (configuration not stated) | – | 9.74
38 | NC(=O)CCCc1ccncc1 | 5.64 | –
39 | NCCCCc1ccncc1 | 10.2 | –
40 | Cc1ccccc1/C(=N\CCCN(C)C)c1cccc2ccccc12 | 8.8 | –
41 | CC(C)(C)SC(=N)c1ccccc1 | 9.24 | –
42 | [NH3+]c1ccc(-c2cnc(-c3ccc(Cl)cc3)o2)cc1 | 0.27 | –
43 | C[NH2+]CCS | – | 8.02
44 | Cc1cccc(Cl)c1O | – | 8.7
45 | NCCCCCC(=O)[O-] | 10.8 | –
46 | CNNC1CCN(C(C)C)CC1 | 9.1 | –
47 | Cc1ccc(OCC(=O)N[C@H]2C(=O)N3[C@H]2SC(C)(C)[C@H]3C(=O)O)cc1 | – | 2.8
48 | [O-]c1cc[nH+]cc1O | – | 9.6
49 | Cc1cccc(N)c1C | 4.56 | –
50 | On1nnc2ccc(C(F)(F)F)cc21 | – | 3.97

Row | Compound | pKa (basic group) | pKa (acidic group)
51 | COc1cccc(S(N)(=O)=O)c1 | – | 9.39
52 | Nc1cccc(-c2cccc(N)n2)n1 | 6.7 | –
53 | COCCCN | 9.92 | –
54 | c1ccc(-c2cccc[nH+]2)nc1 | 1.47 | –
55 | NCCCCO | 10.3 | –
56 | c1cncc([C@@H]2CCCCN2)c1 | 4.01 | –
57 | CCc1nsc(O)n1 | – | 6.89
58 | COc1ccc(N)cc1CN | 9.77 | –
59 | NC(=S)Nc1ccc([N+](=O)[O-])cc1 | – | 10.8
60 | CN(C)CCCN(C)CCCN(C)C | 10 | –
61 | Cc1ccc(C(O)C(C(=O)O)c2ccc(C3CCCCC3)cc2)cc1 (configuration not stated) | – | 4.18
62 | Cn1c(-c2ccccc2[O-])nc2ccccc21 | 8.92 | –
63 | Oc1[nH+]cnc2ccccc12 | – | 2.12
64 | O=C(O)c1ccc(Cl)c([N+](=O)[O-])c1 | – | 3.33
65 | CC([NH3+])C/C(N)=N/O (configuration not stated) | 3.75 | –
66 | CC(C)/[NH+]=C/N(C)c1ccc(-c2c[nH]cn2)cc1 | 5.25 | –
67 | CC(N)C/C(N)=N/O (configuration not stated) | 9.15 | –
68 | COc1cnccc1C=O | 4.45 | –
69 | CC(=O)NC(CS)C(=O)O (configuration not stated) | – | 3.08
70 | CN(C)Cc1ccccc1CO | 8.78 | –
71 | CCn1nnnc1NC(C)=O | – | 8.38
72 | CN(C)/C=N/c1ccccc1Cl | 6.85 | –
73 | COc1ccc(S(=O)(=O)NCCCN2CCOCC2)c(OC)c1OC | 6.76 | –
74 | CCCC1(Br)C(=O)NC(=O)NC1=O | – | 6.6
75 | Cc1ccnc(N)c1 | 7.48 | –

Row | Compound | pKa (basic group) | pKa (acidic group)
76 | Clc1cc(-c2ccccc2)nnc1NCCN1CCOCC1 | 6.64 | –
77 | Cc1cccc(C)c1OCC(=O)O | – | 3.36
78 | CC(=O)/C(=N/O)c1ccccc1 | – | 8.85
79 | O=C(O)c1cc(Br)cs1 | – | 3.11
80 | CCCN1CCCCC1 | 10.4 | –
81 | CCN(CC)c1ccc(C(O)(c2ccccc2)c2ccc(N(CC)CC)cc2)cc1 | 7.9 | –
82 | NCCCCNCCCN | 10.6 | –
83 | CCCCCCN(CCO)CC(C)O (configuration not stated) | 9 | –
84 | CCOCCNc1cccc(C)c1 | 4.24 | –
85 | CCCNCC(=O)Nc1c(C)cccc1C | 8.01 | –
86 | COc1cc(CN)c(C)cc1N | 9.54 | –
87 | COC(=O)N1c2ccccc2[C@@]23CCN4CC=C[C@]5(CC[C@]12[C@](O)(C(=O)OC)C5O)[C@H]43 (some centres not stated) | 5.63 | –
88 | NCCC[NH2+]CCCC[NH3+] | 8.35 | –
89 | CCN(CC)CCCN(CC)CC | 10.2 | –
90 | NCc1ccncc1 | 8.3 | –
91 | CCc1nc2ccccc2[nH]1 | 6.2 | –
92 | CC(C)N/C=[NH+]/c1ccc(-c2cncn2C)cc1 | 6.51 | –
93 | CC(=O)N1CCC[C@H]1C(=O)O | – | 3.21
94 | COc1ccc(-c2cn3ccnc3[nH]2)c(OC)c1 | 6.76 | –
95 | O=C(O)c1cccs1 | – | 3.46
96 | CCOc1ccc(N)cc1 | 5.25 | –
97 | C[n+]1ccccc1S | – | -1.42
98 | CCN(C#N)CC | -2 | –
99 | NCCSCCN | 9.64 | –
100 | CCOP(=O)([O-])NS(=O)(=O)c1ccccc1 | – | 6.5

Row | Compound | pKa (basic group) | pKa (acidic group)
101 | COc1ccc(O)cc1Br | – | 9.09
102 | [NH3+]CCCCCCCCCCC(=O)O | – | 4.62
103 | CC1(C)SC(=S)NC1=O | – | 5.38
104 | OCCNc1nc(NCCO)nc(NCCO)n1 | 5.19 | –
105 | CCOc1cccc(N)c1 | 4.15 | –
106 | O=[Se](O)c1ccc(-c2ccccc2)cc1 | – | 4.53
107 | NC(=S)C(N)Cc1ccccc1 (configuration not stated) | 7.15 | –
108 | C[N+](C)(C)CCCc1ccccc1O | – | 9.78
109 | O=C(O)/C=C\c1cccc([N+](=O)[O-])c1 | – | 3.63
110 | C[N+](C)(C)CCN | 7.34 | –
111 | C[C@H](CCCNCc1ccccc1)[C@H]1CC[C@H]2[C@@H]3CC[C@@H]4C[C@H](O)CC[C@]4(C)[C@H]3C[C@H](O)[C@]12C | 9.07 | –
112 | Cc1ncc2nc(C)c(C)nc2n1 | 3.76 | –
113 | Cc1ccc(C[NH3+])cc1N | 4.26 | –
114 | Cc1ccnc(NS(=O)(=O)c2ccccc2)n1 | 0.59 | –
115 | Cn1cnc2c([O-])ncnc21 | 9.11 | –
116 | Cc1nn(-c2ccccc2)c(O)c1C1CCCCC1 | – | 11.6
117 | CNOC | 4.75 | –
118 | CC(C)(C#N)CC(=O)O | – | 4.04
119 | C=CCCN1C[C@H]2C[C@@H](C1)c1cccc([O-])[n+]1C2 | 7 | –
120 | O=C([O-])[C@H]1O[C@@H]1C(=O)O | – | 3.25
121 | CC(CN(C)C)[NH+](C)C (configuration not stated) | 5.4 | –
122 | CC[NH+](CC)CCCCC(C)Nc1c2ccc(Cl)cc2nc2ccc(OC)cc12 (configuration not stated) | 7.74 | –
123 | Cc1ccc(C(=O)O)cc1O | – | 4.32
124 | CN(C)c1ccc2cc3ccc(N(C)C)cc3nc2c1 | 10.4 | –
125 | Nc1ccc(C[NH3+])cc1 | 4.16 | –

Row | Compound | pKa (basic group) | pKa (acidic group)
126 | O=[N+]([O-])c1ccc(-c2nnn[nH]2)cc1 | – | 3.08
127 | CC(=O)NS(=O)(=O)c1ccc(N)cc1 | 1.58 | 5.35
128 | COc1ccc(F)cc1C(=O)N[C@@H]1C[C@H]2CC[C@@H](C1)N2Cc1ccccc1 | 8.82 | –
129 | Cn1cnc2cc(O)ccc21 | 6.1 | 9.85
130 | C=CCc1c(C)nn(C)c1O | – | 10.5
131 | [O-]c1ncnc2nc[nH]c12 | 8.81 | 12.1
132 | CC(=O)[C@H]1C[C@@H](CC(=O)O)C1(C)C | – | 4.82
133 | C[C@H]1CN[C@@H](C)CN1 | 9.98 | –
134 | CC(C)[C@@]12CN[C@@H](C(=O)[O-])[C@@H]1CC(=O)O2 | 7.8 | –
135 | O=C([O-])CCCC(=O)NOCc1ccccc1 | – | 10.2
136 | C[C@H](N)[C@H](C)[NH3+] | 6.79 | –
137 | COc1c(O)cccc1CN | 8.89 | 10.5
138 | O=C(O)[C@@H]1CCCC[C@@H]1O | – | 4.8
139 | CCP(=O)(CC)CC=O | – | 10.9
140 | Cc1cc(C)c(O)c(C(C)C)c1 | – | 11.2
141 | Cc1nc(CO)[nH]c1C | 7.88 | –
142 | O[n+]1ccccc1 | – | 0.77
143 | C=C1CC1C[C@H](N)C(=O)[O-] (some centres not stated) | 9.37 | –
144 | CCCCN(CC1CO1)CC1CO1 (configuration not stated) | 6.91 | –
145 | COCC1=C(C(=O)O)CCC1 | – | 4.5
146 | [O-]c1ncc2ccccc2n1 | 10.7 | –
147 | Cc1cc(O)c(C(C)C)cc1Cl | – | 9.98
148 | [S-]c1ncnc2nccnc12 | 6.81 | –
149 | NCCc1ccc(O)c(O)c1 | 8.89 | 10.6
150 | COc1ccc(O)c([N+](=O)[O-])c1 | – | 7.39

Row | Compound | pKa (basic group) | pKa (acidic group)
151 | CN(C)CCCN(C)CCC[NH+](C)C | 9 | –
152 | Nc1nc[nH+]c(O)c1N | 1.34 | 3.57
153 | O/N=C1C=C/C(=N\O)c2cccnc2/1 | 3.7 | 10
154 | CCC1CN1 (configuration not stated) | 5.69 | –
155 | Nc1ccc(S(=O)(=O)Nc2ccc(S(N)(=O)=O)cc2)cc1 | – | 7.85
156 | N#CC(=C(O)O)c1ccccc1 | – | 0.99
157 | CC1=C(CC(C)NCC(O)c2ccc(F)cc2)CCC1(C)C (configuration not stated) | 8.51 | –
158 | Fc1cc2nc[nH]c2cc1Cl | 4.33 | –
159 | O=C(O)C12CC3CC(CC(C3)C1)C2 | – | 4.95
160 | CCC(=O)C(CCN1CCCCC1)(c1ccccc1)c1ccccc1 | 8.86 | –
161 | CC(C)(C)S | – | 11.1
162 | COC(=O)c1ccc(O)cc1 | – | 8.34
163 | CN(C)CCC/N=C(\c1ccccc1)c1ccccc1O | 9.3 | –
164 | O=C(OCc1ccccc1)c1ccc(O)cc1 | – | 8.31
165 | CCOC(=O)[C@H](C)N | 7.8 | –
166 | CCCCCCCCCCCCCCCCN | 10.6 | –
167 | NNCCOc1ccccc1 | 6.8 | –
168 | N#Cc1cccc(C(=O)O)c1 | – | 3.6
169 | CSc1ccc2ccccc2n1 | 3.71 | –
